In one assay the test system is P388. The assay can be described thus: Cytotoxicity against mouse P388 cells. Type of assay: functional, cell-based.
The next assay concerns Candida albicans. The assay can be described thus: Antifungal activity against Candida albicans. The assay is classed as functional, organism-based.

The source made the active and inactive calls. No cut-off for these calls is given here.

Regarding `C=C1CC[C@H](C(C)C)[C@@H]2[C@H]1[C@H]1C[C@](C)(O)[C@@H](OCC)CC[C@@](C)(O)[C@@H]2O1`, the result in the assay on P388 and with Candida albicans was inactive.
